Experimental data taken from US20090074791A1, “Phenylisoquinoline and Phenylquinazoline Derivatives” (priority 2007, published 2009).
pIC50: −log10 of the molar value.

Target: T1, human PCaR (parathyroid Calcium receptor) (Homo sapiens, UniProt P41180)
T1 construct: expressed in transfected cells; host or cells: CCL39 fibroblasts (stably transfected)
T1 sequence (P41180 20-1078): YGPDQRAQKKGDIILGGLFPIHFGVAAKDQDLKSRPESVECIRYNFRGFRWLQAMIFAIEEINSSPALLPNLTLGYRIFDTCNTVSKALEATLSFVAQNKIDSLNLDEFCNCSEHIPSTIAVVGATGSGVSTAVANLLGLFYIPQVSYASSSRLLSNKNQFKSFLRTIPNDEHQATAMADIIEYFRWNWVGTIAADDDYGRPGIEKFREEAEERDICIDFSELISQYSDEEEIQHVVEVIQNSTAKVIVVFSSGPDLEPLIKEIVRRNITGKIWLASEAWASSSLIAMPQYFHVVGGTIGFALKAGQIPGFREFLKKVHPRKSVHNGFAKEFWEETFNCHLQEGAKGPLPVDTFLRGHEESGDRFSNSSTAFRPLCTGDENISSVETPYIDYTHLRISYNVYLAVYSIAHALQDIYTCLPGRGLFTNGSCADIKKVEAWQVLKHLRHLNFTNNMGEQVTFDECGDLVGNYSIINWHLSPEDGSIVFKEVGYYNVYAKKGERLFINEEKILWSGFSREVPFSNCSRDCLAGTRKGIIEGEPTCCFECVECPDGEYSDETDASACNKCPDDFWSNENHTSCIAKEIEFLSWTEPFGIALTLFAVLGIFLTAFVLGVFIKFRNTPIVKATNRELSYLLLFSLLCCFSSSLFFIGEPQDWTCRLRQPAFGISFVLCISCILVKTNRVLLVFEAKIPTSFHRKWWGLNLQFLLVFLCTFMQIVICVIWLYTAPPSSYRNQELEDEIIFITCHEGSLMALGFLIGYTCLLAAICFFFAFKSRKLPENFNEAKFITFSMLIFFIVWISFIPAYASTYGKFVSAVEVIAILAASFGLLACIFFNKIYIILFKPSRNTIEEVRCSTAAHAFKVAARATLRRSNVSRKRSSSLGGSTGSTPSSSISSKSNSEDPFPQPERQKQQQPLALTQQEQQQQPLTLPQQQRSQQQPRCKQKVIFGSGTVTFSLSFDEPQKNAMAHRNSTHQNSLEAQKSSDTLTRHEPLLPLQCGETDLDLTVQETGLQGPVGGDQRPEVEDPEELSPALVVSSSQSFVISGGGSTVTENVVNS
Test: Intracellular free calcium assay: inhibition of calcium transients stimulated by extracellular calcium (antagonism at PCaR)
Type: cell-based
Settings: CCL39 fibroblasts stably transfected with human PCaR; Fluo-3 AM; stimulated with calcium (2.5 mM final)
Procedure: A suitable and well validated assay to measure the anabolic effect on bone formation is the assay to detect intracellular free calcium, i.e. the method to determine antagonism at the parathyroid Calcium receptor (PCaR) consists in measuring the inhibition of intracellular calcium transients stimulated by extracellular calcium:
CCL39 fibroblasts stably transfected with human PCaR are seeded at 40'000 cells/well into 96-well Viewplates and incubated for 24 hours. Medium is then removed and replaced with fresh medium containing 2 μM Fluo-3 AM (Molecular Probes, Leiden, The Netherlands), In routine experiments, cells are incubated at 37° C., 5% CO2 for 1 h. Afterwards, plates are washed twice with mHBS and wells are refilled with 100 μl mHBS containing the test compounds. Incubation is continued at room temperature for 15 minutes. To record changes of intracellular free calcium, plates are transferred to fluorescence-imaging plate reader (Molecular Devices, Sunnyvale, Calif., USA). A baseline consisting in 5 measurements of 0.4 seconds each (laser excitation 488 nm) is recorded. Cells are then stimulated with calcium (2.5 mM final), and fluorescence changes recorded over a period of 3 minutes.

| pIC50 | Structure (SMILES) |
| --- | --- |
| 9.00 | C#CCOc1ccc2nc(-c3nc4cc(C(C)=O)ccc4n3C)nc(-c3ccc(C(C)C)cc3)c2c1 [Example 24, 1-{2-[4-(4-Isopropyl-phenyl)-6-prop-2-ynyloxy-quinazolin-2-yl]-1-methyl-1H-benzoimidazol-5-yl}ethanone] |
| 9.06 | C#CCOc1ccc2nc(-c3nc4ccc(Br)cc4[nH]3)nc(-c3ccc(C(C)C)cc3)c2c1 [Example 19, 2-(6-Bromo-1H-benzoimidazol-2-yl)-4-(4-isopropyl-phenyl)-6-prop-2-ynyloxy-quinazoline] |
| 9.36 | C#CCOc1ccc2nc(-c3nc4cc(F)c(F)cc4[nH]3)nc(-c3ccc(C(C)C)cc3)c2c1 [Example 25, 2-(5,6-Difluoro-1H-benzoimidazol-2-yl)-4-(4-isopropyl-phenyl)-6-prop-2-ynyloxy-quinazoline] |
| 9.19 | C#CCOc1ccc2nc(-c3nc4ccc(C(=O)OCC)cc4n3C)nc(-c3ccc(C(C)C)cc3)c2c1 [Example 36, 2-[4-(4-Isopropyl-phenyl)-6-prop-2-ynyloxy-quinazolin-2-yl]-3-methyl-3H-benzoimidazole-5-carboxylic acid ethyl ester] |
| 9.13 | C#CCOc1ccc2nc(-c3nc4ccc(C(=O)OCC)cc4[nH]3)nc(-c3ccc(C(C)C)cc3)c2c1 [Example 17, 2-[4-(4-Isopropyl-phenyl)-6-prop-2-ynyloxy-quinazolin-2-yl]-3H-benzoimidazole-5-carboxylic acid ethyl ester] |
| 9.02 | C#CCOc1ccc2nc(-c3nc4ccc(OC)cc4[nH]3)nc(-c3ccc(C(C)C)cc3)c2c1 [Example 15, 4-(4-Isopropyl-phenyl)-2-(6-methoxy-1H-benzoimidazol-2-yl)-6-prop-2-ynyloxy-quinazoline] |
| 9.23 | C#CCOc1ccc2nc(-c3nc4cccc(C(C)=O)c4[nH]3)nc(-c3ccc(C(C)C)cc3)c2c1 [Example 26, 1-{2-[4-(4-Isopropyl-phenyl)-6-prop-2-ynyloxy-quinazolin-2-yl]-3H-benzoimidazol-4-yl}-ethanone] |
| 9.17 | C#CCOc1ccc2nc(-c3nc4ccc(C(=O)c5ccccc5)cc4[nH]3)nc(-c3ccc(C(C)C)cc3)c2c1 [Example 18, {2-[4-(4-isopropyl-phenyl)-6-prop-2-ynyloxy-quinazolin-2-yl]-3H-benzoimidazol-5-yl}phenyl-methanone] |
| 9.15 | C#CCOc1ccc2nc(-c3nc4cc(OC)ccc4n3C)nc(-c3ccc(C(C)C)cc3)c2c1 [Example 6, 4-(4-Isopropyl-phenyl)-2-(5-methoxy-1-methyl-1H-benzoimidazol-2-yl)-6-prop-2-ynyloxy-quinazoline] |
| 8.82 | C#CCOc1ccc2nc(-c3nc4ccccc4n3C)nc(-c3ccc(C(C)C)cc3)c2c1 [Example 8, 4-(4-Isopropyl-phenyl)-2-(1-methyl-1H-benzoimidazol-2-yl)-6-prop-2-ynyloxy-quinazoline] |
| 8.85 | C#CCOc1ccc2nc(-c3nc4cc(F)c(Cl)cc4[nH]3)nc(-c3ccc(C(C)C)cc3)c2c1 [Example 21, 2-(6-Chloro-5-fluoro-1H-benzoimidazol-2-yl)-4-(4-isopropyl-phenyl)-6-prop-2-ynyloxy-quinazoline] |
| 9.03 | C#CCOc1ccc2nc(-c3nc4ccc(C#N)cc4[nH]3)nc(-c3ccc(C(C)C)cc3)c2c1 [Example 3, 2-[4-(4-Isopropyl-phenyl)-6-prop-2-ynyloxy-quinazolin-2-yl]-3H-benzoimidazole-5-carbonitrile] |
| 8.96 | C#CCOc1ccc2nc(-c3nc4cc(F)ccc4n3C)nc(-c3ccc(C(C)C)cc3)c2c1 [Example 5, 2-(5-Fluoro-1-methyl-1H-benzoimidazol-2-yl)-4-(4-isopropyl-phenyl)-6-prop-2-ynyloxy-quinazoline] |
| 9.40 | C#CCOc1ccc2nc(-c3nc4cc(C(=O)OCC)ccc4n3C)nc(-c3ccc(C(C)C)cc3)c2c1 [Example 23, 2-[4-(4-Isopropyl-phenyl)-6-prop-2-ynyloxy-quinazolin-2-yl]-1-methyl-1H-benzoimidazole-5-carboxylic acid ethyl ester] |
| 9.28 | C#CCOc1ccc2nc(-c3nc4ccc(Cl)cc4[nH]3)nc(-c3ccc(C(C)C)cc3)c2c1 [Example 16, 2-(6-Chloro-1H-benzoimidazol-2-yl)-4-(4-isopropyl-phenyl)-6-prop-2-ynyloxy-quinazoline] |
| 9.20 | C#CCOc1ccc2nc(-c3nc4cc(C(F)(F)F)ccc4n3C)nc(-c3ccc(C(C)C)cc3)c2c1 [Example 22, 4-(4-Isopropyl-phenyl)-2-(1-methyl-5-trifluoromethyl-1H-benzoimidazol-2-yl)-6-prop-2-ynyloxy-quinazoline] |
| 9.02 | C#CCOc1ccc2nc(-c3nc4ccc(C(F)(F)F)cc4[nH]3)nc(-c3ccc(C(C)C)cc3)c2c1 [Example 14, 4-(4-Isopropyl-phenyl)-6-prop-2-ynyloxy-2-(6-trifluoromethyl-1H-benzoimidazol-2-yl)-quinazoline] |
| 8.80 | C#CCOc1ccc2nc(-c3nc4ccc(F)cc4[nH]3)nc(-c3ccc(C(C)C)cc3)c2c1 [Example 20, 2-(6-Fluoro-1H-benzoimidazol-2-yl)-4-(4-isopropyl-phenyl)-6-prop-2-ynyloxy-quinazoline] |
| 9.59 | C#CCOc1ccc2nc(-c3nc4cc(C(=O)CCC)c(C)cc4n3C)nc(-c3ccc(C(C)C)cc3)c2c1 [Example 1, 1-{2-[4-(4-Isopropyl-phenyl)-6-prop-2-ynyloxy-quinazolin-2-yl]-1,6-dimethyl-1H-benzoimidazol-5-yl}-butan-1-one] |
